For one data set, the system named is H. pylori 43629. It counts as cell-based, Helicobacter pylori. Conditions: 43629, 24 h.
For a further data set, the system named is H. pylori 43504. It counts as cell-based, Helicobacter pylori. The settings on record: 43504, 24 h. As for the experimental part:
(§1) H. pylori strains, American type cell cultures (ATCC) 43504, 51653, and 700392, and a clinical isolate CI-HC-028 (provided by Dr. Ming-Shiung Wu, Department of Internal Medicine, Gastrointestinal Hepatobilary Division, National Taiwan University Hospital, Taiwan) were used to determine the antimicrobial efficacy of TP4. Strains were cryopreserved at −80°C in brain heart infusion broth supplemented with 20% FBS. Bacteria were cultured under microaerobic conditions, as previously described. Briefly, bacteria were spread on brain heart infusion (BHI) agar plates supplemented with 10% (v/v) sheep blood, and plates were incubated at 37°C for 24 hr under a microaerobic atmosphere (Anaeropack-Anaero, Mitsubishi, Japan).
(§2) Frozen cultures were streaked onto BHI agar with 10% sheep blood, and incubated for 24 hr under microaerophilic conditions. H. pylori cells undergoing exponential growth were suspended in sterile phosphate-buffered saline (PBS), and adjusted to 0.05 OD using BHI broth; the resulting inoculum was dispensed onto a microtitre plate. Peptide TP4 was prepared at various concentrations (0.04 to 50 μg mL^−1) using PBS. Antibiotic resistant clinical isolate CI-HC-028 and three reference strains were used for susceptibility testing. All plates were incubated under microaerophilic conditions at 37°C overnight. The MIC was defined as the lowest concentration of the drug at which there was no visible growth. For quality control and comparative analyses, we examined the susceptibility of all four H. pylori strains to the antibiotics amoxicillin, clarithromycin, and metronidazole (Sigma Chemical Co., St. Louis, MO).

A further data set has as its system H. pylori 700392. It counts as cell-based, Helicobacter pylori. Conditions: 700392, 24 h. As for the experimental part: as §1, §2
Data set [1] concerns H. pylori CI-HC-028. It counts as cell-based, Helicobacter pylori. Conditions: CI-HC-028, 24 h. As for the experimental part:
as §1, §2

The subject of a further data set is H. pylori. Description: Induction of drug resistance by sub-inhibitory passaging (in vitro / in vivo passage). It counts as cell-based, Helicobacter pylori. Conditions: sub-inhibitory doses, 10 serial passages. On the procedure:
(§3) Animals were sacrificed at each passage, and the MIC of TP4, amoxicillin, metronidazole, and clarithromycin were recorded for 10 serial passages. Passage points in the curves are means ± SEM. (MICs: standard MIC value; MICp: passage-induced MIC). (B) In vitro dose-OD fall kinetics were examined for TP4 alone and in combination with amoxicillin, metronidazole, or clarithromycin. […] The data shown are means ± SEM of two independent experiments
The drug resistance of bacteria to TP4 and clinical antibiotics was determined by in vitro culturing of H. pylori in sub-inhibitory concentrations of TP4 and antibiotics, followed by repeated in vivo passaging. H. pylori was administered to C3H/HeN mice and allowed to colonize the gut; subsequently pure colonies of H. pylori were isolated on EYE selective media. This step was repeated for 10 passages. During each passage, the MICs of TP4 and the conventional antibiotics were determined. All procedures, care, and handling of mice were approved by the laboratory animal ethics committee of National Taiwan Ocean University.

Data set [2] concerns metronidazole- and clarithromycin-resistant H. pylori strains. Description: Synergy of TP4 with antibiotics, in vitro dose-OD fall kinetics. It counts as cell-based, Helicobacter pylori. The settings on record: TP4 plus antibiotic. On the procedure: as §3
Combination therapy often enhances antibiotic efficacy and mitigates the frequency at which drug resistance emerges. To determine the suitability of TP4 for combination therapy, we examined in vitro dose-OD fall kinetics of TP4 in combination with AMOX, CLRN, or METZ antibiotics; these three antibiotics are traditionally used as the first line of defense against H. pylori.

In data set [3] the test system is H. pylori CI-HC-028. Nature of the data set: Time-dependent killing of multidrug resistant clinical isolate. It counts as cell-based, Helicobacter pylori. The settings on record: CI-HC-028, at MIC. On the procedure: Control peptide and H. pylori alone were used as controls. The cultures were monitored for 24 h, and aliquots were taken at 1, 3, 6, 12, and 24 h for bacterial enumeration. The data are means ± SEM. […] Approximately, 1 × 10^5 cells were incubated for 1 h, and then incubated with the MIC of TP4, amoxicillin, metronidazole, or clarithromycin (AMOX, METZ, and CLRN, respectively). The cultures were monitored for 24 h, and aliquots taken at 1, 3, 6, 12, and 24 h to determine surviving c.f.u. The data are means ± SEM
Overnight cultures of H. pylori were scraped and adjusted to OD 0.05, and 1 ml/tube inocula were prepared with BHI broth. Solutions of TP4 or clinical antibiotics were prepared with concentrations corresponding to their respective MIC, and PBS was used as a control. The tubes were incubated without shaking at 37°C under microaerophilic conditions, and sample aliquots were taken at 0, 1, 3, 6, 12, and 24 hr. The samples were serially diluted, and appropriate dilutions were plated in triplicate onto blood agar plates for bacterial counts. The results were expressed as mean log (c.f.u. mL^−1) with standard error.

Data set [4] relates to New Zealand white rabbits. Description: Eye irritation test in rabbits (OECD 405). It counts as in vivo. The settings on record: for Abnormality iris grade / Chemosis grade / Conjunctivae Redness grade / Corneal opacity grade: OECD 405 grading. As for the experimental part:
(§4) Figure 11 TP4 toxicity safety evaluations in New Zealand albino rabbits and C3H/HeN mice (A) Eye irritation test: Ocular appearances of controls, and rabbits treated with TP4 or SDS for 7 days. […] (B) Dermal toxicity: appearances of the skin of mice treated with TP4 at 48 hr post-exposure.
(§5) Oral toxicity: Acute oral toxicity was assessed in C3H/HeN mice with 6 animals per group, by single oral administration of TP4 (125 mg/kg). After dose administration, the animals were kept under observation for a minimum of 48 hr. The mortality rate and clinical signs were recorded. Sub-acute oral toxicity was assessed by administering 600 μg dose/day for 14 days. During dose administration, the animals were observed every day for any signs of toxicity. After the treatment period, the animals were kept under observation for 14 days. The morbidity, mortality, and other clinical signs were recorded and assessed. Dermal Toxicity was assessed by topical application of TP4 at 10 times the effective dose to skin at the dorsal side of mice. After administration, the animals were kept under observation for a minimum of 48 h. Clinical signs were noted if the animals were in the morbid stage or presented with any abnormalities. Eye irritation test in New Zealand white rabbits: Healthy young adult rabbits were used in the experiment. Eyes were treated with TP4, PBS (vehicle control), or 0.1% SDS (positive control). A repeated dose of 1 mg/kg was administered every day for 7 days. During the treatment period, the eyes were examined on days 1, 3, 5, and 7, and allowed to recover until day 14. Clinical signs were recorded during the test period, and grades were assigned for ocular reactions observed during each examination. All procedures, care, and handling of rabbits were approved by the laboratory animal ethics committee of National Taiwan Ocean University.

The test system of a further data set is C3H/HeN mice. Description: Dermal toxicity. The settings on record: 48 hr post-exposure, after residue removal; 125 mg/kg TP4 or 20% SDS; n=12 per group. It counts as in vivo. As for the experimental part: as §4, §5

Where a SMILES comes first, the peptide text is derived from it.

What is called MIC is the lowest concentration found to suppress growth. A lower MIC goes with inhibition by little substance. On to `CC[C@H](C)[C@H](NC(=O)[C@H](CC(C)C)NC(=O)[C@H](CO)NC(=O)[C@H](Cc1c[nH]cn1)NC(=O)[C@@H](NC(=O)[C@H](Cc1c[nH]cn1)NC(=O)[C@H](CCCCN)NC(=O)CNC(=O)[C@@H](NC(=O)[C@H](CO)NC(=O)[C@H](Cc1ccccc1)NC(=O)[C@H](CC(C)C)NC(=O)CNC(=O)CNC(=O)[C@@H](NC(=O)[C@@H](NC(=O)[C@H](Cc1c[nH]cn1)NC(=O)[C@H](Cc1c[nH]cn1)NC(=O)[C@@H](NC(=O)[C@@H](N)Cc1ccccc1)[C@@H](C)CC)[C@@H](C)CC)[C@@H](C)CC)C(C)C)[C@@H](C)CC)C(=O)N[C@@H](Cc1c[nH]cn1)C(=O)NCC(=O)N[C@@H](Cc1c[nH]cn1)C(N)=O` [TP3] (H-FIHHIIGGLFSVGKHIHSLIHGH-NH2), for which the MIC in the data set with H. pylori 43629, in the data set with H. pylori 43504, in the data set on H. pylori 700392 and with H. pylori CI-HC-028 [1] was 8 to 12 µg/mL each time.

On to `Cc1ncc([N+](=O)[O-])n1CCO` [metronidazole], for which the “drug resistance index MICp/MICs” value in the data set on H. pylori is reported as “gradually increased from passage 3 to the last passage”. Moreover, the “reduction of the MIC of the antibiotic in combination with TP4” value in data set [2] is reported as “one-half”. The “course of cell count in time kill” value in the data set with H. pylori CI-HC-028 [3] (24 h) is “initial decrease in cell count, but gradually lost activity”.

`CCCCCCCCCCCCOS(=O)(=O)[O-].[Na+]` [SDS, reference compound]: the Abnormality iris grade is recorded as 0 in data set [4] (Day 1); 0 in [4] (Day 3); 0 in data set [4] (Day 5); 0 in [4] (Day 7); 0 in data set [4] (Recovery, Day 14). The Chemosis grade in data set [4] (Day 1) is reported as 1.5; in data set [4] (Day 3), 1.5; in data set [4] (Day 5), 2; in [4] (Day 7), 2; in data set [4] (Recovery, Day 14) it was 1.5. The “Conjunctivae Redness grade” value amounted to 1 in data set [4] (Day 1); 1 in data set [4] (Day 3); 1 in data set [4] (Day 5); 1 in data set [4] (Day 7); 0.5 in [4] (Recovery, Day 14). Besides, the Corneal opacity grade in [4] (Day 1, rabbit eye, daily for 7 days (TP4 1 mg/kg; SDS 0.1%)) was determined as 1; in data set [4] (Day 3), 1; in data set [4] (Day 5) it was 1; in [4] (Day 7), 1; in [4] (Recovery, Day 14), 0.5. Moreover, the ocular appearance entry in data set [4] (rabbits treated for 7 days, observed daily) is “severe lacrimation, swelling of the eyelids, and elevated blood vessels in conjunctivae”. The “skin appearance, lesions” value in the data set on C3H/HeN mice is on record as “No obvious lesions”.

On to `CC(C)C[C@H](NC(=O)[C@@H](NC(=O)[C@H](CO)NC(=O)[C@H](CC(=O)O)NC(=O)[C@H](Cc1c[nH]c2ccccc12)NC(=O)[C@H](CC(=O)O)NC(=O)[C@@H](N)Cc1ccccc1)C(C)C)C(=O)N[C@@H](CCCCN)C(=O)NCC(=O)N[C@H](C(=O)N[C@@H](CCC(=O)O)C(=O)NCC(=O)N[C@@H](Cc1ccccc1)C(=O)N[C@H](C(=O)N[C@@H](CCCNC(=N)N)C(=O)NCC(=O)N[C@@H](Cc1ccc(O)cc1)C(=O)N[C@@H](Cc1ccccc1)C(N)=O)C(C)C)C(C)C` [TP1] (H-FDWDSVLKGVEGFVRGYF-NH2), for which the minimum inhibitory concentration (MIC) against H. pylori 43629, in the data set on H. pylori 43504, with H. pylori 700392 and in the data set on H. pylori CI-HC-028 [1] was > 12 µg/mL in each case.

With `CC[C@H](C)[C@H](NC(=O)[C@H](CC(C)C)NC(=O)[C@H](CCC(=O)O)NC(=O)[C@H](CCC(N)=O)NC(=O)[C@H](CC(C)C)NC(=O)[C@@H](NC(=O)[C@H](CCCCN)NC(=O)[C@H](CCC(N)=O)NC(=O)[C@@H](NC(=O)[C@@H](NC(=O)[C@H](CCC(=O)O)NC(=O)CNC(=O)[C@H](CO)NC(=O)[C@@H](NC(=O)[C@H](CCC(N)=O)NC(=O)[C@H](CCCCN)NC(=O)CNC(=O)[C@H](CCC(N)=O)NC(=O)[C@H](CC(C)C)NC(=O)[C@@H](N)CCC(N)=O)C(C)C)C(C)C)C(C)C)C(C)C)C(=O)N[C@@H](CCC(N)=O)C(=O)N[C@@H](CO)C(=O)N[C@H](C(=O)N[C@@H](C)C(=O)N[C@@H](CCCCN)C(=O)N1CCC[C@H]1C(N)=O)C(C)C` [TP5] (H-QLQGKQVSGEVVQKVLQELIQSVAKP-NH2), the MIC in the data set on H. pylori 43629, in the data set with H. pylori 43504, in the data set with H. pylori 700392 and against H. pylori CI-HC-028 [1] was >12 µg/mL in each case.

Turning to `CC[C@H]1OC(=O)[C@H](C)[C@@H](O[C@H]2C[C@@](C)(OC)[C@@H](O)[C@H](C)O2)[C@H](C)[C@@H](O[C@@H]2O[C@H](C)C[C@H](N(C)C)[C@H]2O)[C@](C)(OC)C[C@@H](C)C(=O)[C@H](C)[C@@H](O)[C@]1(C)O` [clarithromycin], the “drug resistance index MICp/MICs” value in the data set on H. pylori is reported as “gradually increased from passage 3 to the last passage”. In data set [2], the “reduction of the MIC of the antibiotic in combination with TP4” value is reported as “one-half”. For the same compound, the “time taken to 90% reduction of c.f.u.” value in the data set on H. pylori CI-HC-028 [3] is > 24 h.
